What was measured:
[1] = target: A-DA lipid probe targets in A549 cells (Homo sapiens, UniProt Q9H6K4); assay: In situ competitive SILAC profiling with A-DA probe in (PMA-stimulated) A549 cells; conditions: A549 cells, A-DA probe
human NUCB1 = target: T1, human NUCB1 (Homo sapiens, UniProt Q02818); assay: In vitro gel-based competition of AEA-DA probe labeling of NUCB1; type: binding; conditions: for IC50: AEA-DA 5 μM, recombinant NUCB1 0.25 μM doped into HEK293T lysates, percent of maximal competition, read-out: IC50, blockade of AEA-DA probe labeling of NUCB1
T1 construct: made in house; host or cells: Escherichia coli BL21(DE3)
T1 sequence (Q02818 27-461): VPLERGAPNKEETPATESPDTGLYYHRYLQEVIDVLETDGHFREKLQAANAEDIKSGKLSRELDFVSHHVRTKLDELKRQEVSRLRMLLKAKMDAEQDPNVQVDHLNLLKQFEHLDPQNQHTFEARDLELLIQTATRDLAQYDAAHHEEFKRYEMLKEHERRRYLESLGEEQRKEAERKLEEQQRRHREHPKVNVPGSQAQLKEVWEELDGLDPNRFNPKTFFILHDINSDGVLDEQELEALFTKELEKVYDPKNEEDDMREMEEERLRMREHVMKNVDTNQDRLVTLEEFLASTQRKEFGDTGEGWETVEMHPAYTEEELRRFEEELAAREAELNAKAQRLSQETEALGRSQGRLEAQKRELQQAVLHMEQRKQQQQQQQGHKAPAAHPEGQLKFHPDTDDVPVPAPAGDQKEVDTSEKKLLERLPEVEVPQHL
Procedure: Human NUCB1 lacking the N-terminal signal sequence (M1-A26) was subcloned into pET45b(+) vector (Novagen) using the following PCR primers for amplification: 5′-CATCAATTGTGTGCCCCTGGAGAGAG-3′ and 5′-AGCAAGCTTTACAGATGTTGGGGCACC-3′. Following transformation of Escherichia coli strain BL21(DE3) with hNucb1ΔSSpET45b(+), a single colony was isolated and grown in Terrific Broth containing carbenicillin (100 mg/L) at 37° C. to an OD600 of 0.8. Protein expression was induced with IPTG (1.0 mM) and the cells were incubated at 20° C. with shaking overnight. After centrifugation, cells pellets were resuspended in cold buffer containing HEPES (0.05M), NaCl (0.03 M), imidazole (5.0 mM), DNase (0.1 mg/mL), MgCl2 (1.0 mM), CaCl2 (1.0 mM) and EDTA-free Complete Protease Inhibitor Cocktail and lysed using a microfluidizer. […] The suspension was applied to a column and the retained resin was washed with HEPES buffer containing 500 mM NaCl until the eluent was clean of DNA and protein (A280/260) and then with HEPES buffer containing 10 mM imidazole (5 mL/1 mL resin). Protein was then slowly eluted with HEPES buffer containing 50 mM imidazole in 1.0 mL fractions and the combined fractions containing hNUCB1 were passed through a Sephadex G-25M column to remove imidazole and concentrated in an Amicon centrifugal filter device (Millipore). These conditions produced hNUCB1 at approximately 10 mg/L of culture; however, several lower molecular weight fragments were also present in this preparation. hNUCB1 was further purified by size exclusion chromatography.
Cell lysates (1.0 mg/mL), the indicated lipid probe (2.5 or 5 μM) and, for recombinant NUCB1 competition experiments, purified hNUCB1 (250 nM) and CaCl2 (100 μM) were mixed on ice. DMSO or competitors were then added to the proteome mixture (50 μM) in 96-well plates and each sample was incubated for 15 min at 37° C. The samples were then irradiated with UV light and subjected to previously described click chemistry conditions. As before, each reaction was quenched with 4×SDS loading buffer (17 μL), and proteins were resolved using SDS-PAGE (10% acrylamide gel) and analyzed by in-gel fluorescent scanning on a Hitachi FMBIO-II flatbed fluorescence scanner. NUCB1 competition was quantitatively assessed by measuring the fluorescent intensity of the corresponding gel band using ImageJ 1.48v and normalizing this value by a non-competed gel band to control for loading differences.
Metabolite data are shown as mean±SEM (n=3-5/group). Differences between two groups were determined using Student's t test (unpaired, two-tailed) and significance was denoted for P values<0.05.

[2] = target: T2, endogenous FAAH in Neuro2a lysates (Mus musculus, UniProt O08914); assay: FAAH activity by AEA hydrolysis in Neuro2a lysates; type: biochemical; conditions: for IC50: read-out: IC50 against endogenous FAAH in Neuro2a lysates; for inhibition of FAAH activity in Neuro2a lysates: up to 250 μM
T2 construct: endogenous in cells; host or cells: Neuro2a membrane fraction
T2 sequence (O08914 1-579): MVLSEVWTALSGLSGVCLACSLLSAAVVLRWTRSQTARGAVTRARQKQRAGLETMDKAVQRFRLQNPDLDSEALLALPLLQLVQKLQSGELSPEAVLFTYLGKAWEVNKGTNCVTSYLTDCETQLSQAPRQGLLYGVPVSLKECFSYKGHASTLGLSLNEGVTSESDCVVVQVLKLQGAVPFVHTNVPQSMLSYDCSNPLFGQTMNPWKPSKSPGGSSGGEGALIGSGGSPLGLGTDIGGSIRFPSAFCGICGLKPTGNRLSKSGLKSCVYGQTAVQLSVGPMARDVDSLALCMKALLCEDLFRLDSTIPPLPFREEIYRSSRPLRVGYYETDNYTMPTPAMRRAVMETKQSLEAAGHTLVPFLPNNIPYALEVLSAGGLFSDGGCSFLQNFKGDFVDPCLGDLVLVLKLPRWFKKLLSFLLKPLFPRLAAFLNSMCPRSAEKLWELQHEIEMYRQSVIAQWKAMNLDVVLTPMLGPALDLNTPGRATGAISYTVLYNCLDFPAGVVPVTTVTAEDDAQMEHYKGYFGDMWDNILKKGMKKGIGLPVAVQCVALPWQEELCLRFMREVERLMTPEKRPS
Procedure: FAAH activity was measured by AEA hydrolysis: The membrane fraction of Neuro2a lysates (200 μL, 2.0 mg/mL) was incubated with DMSO or the test compound (1.0-250 μM) at 37° C. After 15 min, AEA-d8 (25 μM) was added and the samples were incubated for an additional 30 min and then quenched by the addition of two volumes of CHCl3:MeOH (2:1) containing pentadecanoic acid (PDA) (1.0 nmol) as an internal standard. After centrifuging (2,000×g, 5 min, 4° C.) to separate the organic and aqueous layers, the lower organic layer was transferred to a clean vial and analyzed by LC/MS as previously described. (Long et al., 2009) Pure humanized rat FAAH (Mileni et al., 2008) (5.0 ng/μL) was assayed in the same manner. Product levels were quantified by determining peak areas in relation to PDA.

A-DA lipid probe targets in A549 cells, sequence (Q9H6K4 whole entry): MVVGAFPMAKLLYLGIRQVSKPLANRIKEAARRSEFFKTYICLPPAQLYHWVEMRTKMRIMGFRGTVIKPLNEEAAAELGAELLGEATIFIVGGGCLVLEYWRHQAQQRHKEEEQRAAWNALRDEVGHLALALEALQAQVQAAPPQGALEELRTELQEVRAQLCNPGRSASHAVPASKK

| Compound | IC50 [2] | inhibition of FAAH activity in Neuro2a lysates [2] | IC50 (human NUCB1) | also measured |
| --- | --- | --- | --- | --- |
| C=CCN(C)CCCCCCOc1ccc(C(=O)c2ccc(Br)cc2)c(F)c1 [Ro488071] |  |  |  | SILAC ratio, OPA3 (Q505D7) ([1]; competitor 5 μM): 1.8 |
| CCCCC/C=C\C/C=C\C/C=C\C/C=C\CCCC(=O)NCCO [AEA, anandamide, reference compound] |  |  |  | competition of AEA-DA probe labeling of recombinant NUCB1 by lipids (human NUCB1; AEA-DA 5.0 μM, lipids 20×, NUCB1-transfected HEK293T lysates): blocked |
| CN1CCN(C(=O)c2c(-c3ccccc3)c3cc([N+](=O)[O-])ccc3n2C)CC1 [KML110, (1-Methyl-5-nitro-3-phenyl-1H-indol-2-yl)(4-methylpiperazin-1-yl)methanone] | > 100 µM | minimal inhibition | 9.6 µM |  |
| O=C(/C=C/c1cccnc1)NCCCCC1CCN(C(=O)c2ccccc2)CC1 [FK-866, reference compound] |  |  |  | SILAC ratio, OPA3 (Q505D7) ([1]; competitor 25 μM): 1.3 |
| CN1CCN(C(=O)c2[nH]c3ccc([N+](=O)[O-])cc3c2-c2ccccc2)CC1 [MJN228, (4-Methylpiperazin-1-yl)(5-nitro-3-phenyl-1H-indol-2-yl)methanone] | > 100 µM | minimal inhibition | 3.3 µM |  |
